Experimental data as given in US6867284B1, “Peptide inhibitors of hepatitis C virus NS3 protease” (Istituto di Ricerche di Biologia Molecolare P. Angeletti …, priority 1998, dated 2005).
Numbered stars: 1 amine (or outer) side, 2 acyl side, 3 side chain; on linkers, the order of the positions; unused ones are H or OH. Square brackets hold non-standard residues; d marks the D form. Peptide text beside a SMILES is read from it. * marks the point of attachment. ξ: configuration not given here. ξAbu(4,4-F2)ψ(COCO) = O=C(C(=O)[*:2])C(CC(F)F)N[*:1]; Dip = N[C@H](C(=O)O)C(c1ccccc1)c1ccccc1; X6 = O=C(NS(=O)(=O)c1ccccc1)C(CC(F)F)N*; X1 = O=C(c1ncc[nH]1)C(CC(F)F)N*; Cha = N[C@@H](CC1CCCCC1)C(=O)O; Ile(3ξ) = CCC(C)[C@H](N)C(=O)O; X3 = O=C(C(CC(F)F)N[*:1])[*:2]; Suc = O=C(CCC(=O)[*:2])[*:1]; X2 = O=C(c1ccco1)C(CC(F)F)N*; X7 = O=C(c1nccs1)C(CC(F)F)N*

The molecules below were run against T1, HCV NS3 protease (Hepatitis C virus genotype 1b, UniProt P26663) (assay: Inhibition of NS3 protease (HPLC cleavage assay, NS3/4A complex with Pep4AK, substrate peptide 4AB)). Conditions: IC50, Table 1 hexapeptides, cell printed without unit.
T1 construct: an NS3/4A complex comprising the NS3 protease domain
Type: biochemical
Method: Buffer solutions containing 80 μM Pep4AK were preincubated for 10 minutes with 10-200 nM protease and reactions were started by addition of substrate. Six duplicate data points at different substrate concentrations were used to calculate kinetic parameters. Incubation times were chosen in order to obtain <7% substrate conversion and reactions were stopped by addition of 40 μl 1% TFA. Cleavage of peptide substrates was determined by HPLC using a Merck-Hitachi chromatograph equipped with an autosampler. 80 μl samples were injected on a Lichrospher C18 reversed phase cartridge column (4×74 mm, 5 μm, Merck) and fragments were separated using a 10-40% acetonitrile gradient a 5%/min using a flow rate of 2.5 ml/min. Peak detection was accomplished by monitoring both the absorbance at 220 nm and tyrosine fluorescence (λex=260 nm, λem=305 nm). Cleavage products were quantitated by integration of chromatograms with respect to appropriate standards. Kinetic parameters were calculated from nonlinear least-squares fit of initial rates as a function of substrate concentration with the help of a Kaleidagraph software, assuming Michaelis-Menten kinetics.
Ki values of peptide inhibitors were calculated from substrate titration experiments performed in the presence of increasing amounts of inhibitor. Experimental data sets were simultaneously fitted to eq.1 using a multicurve fit macro with the help of a Sigmaplot software: V=(VmaxS)/(Km(1+[…])+S); (eq.1)
Alternatively, Ki values were derived from IC50 values, calculated using a four-parameter logistic function, according to eq.2: IC50−(1+S/Km)Ki (eq.2)

T1 sequence (P26663 1027-1208, other chains not shown): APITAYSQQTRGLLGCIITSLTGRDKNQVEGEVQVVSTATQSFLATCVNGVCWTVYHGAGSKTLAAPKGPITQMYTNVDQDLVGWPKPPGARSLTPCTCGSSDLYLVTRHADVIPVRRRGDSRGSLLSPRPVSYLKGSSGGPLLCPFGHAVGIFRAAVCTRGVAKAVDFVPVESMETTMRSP

SMILES	IC50
CSCC[C@H](NC(=O)[C@H](CCC(=O)O)NC(=O)[C@H](CC(=O)O)NC(C)=O)C(=O)N[C@@H](CCC(=O)O)C(=O)N[C@@H](CCC(=O)O)C(=O)NC(CC(F)F)C(=O)O (stereo partly shown) [Compound 1a] (Ac-DEMEE[X3]-OH)	3000 nM

Same assay, conditions: Table 1 hexapeptides, cells printed in nM; read-out: IC50

SMILES	IC50
CC(=O)N[C@@H](CC(=O)O)C(=O)N[C@@H](CCC(=O)O)C(=O)N[C@H](C(=O)N[C@@H](CCC(=O)O)C(=O)N[C@@H](CC1CCCCC1)C(=O)NC(CC(F)F)C(=O)C(=O)O)C(c1ccccc1)c1ccccc1 (stereo partly shown) [Compound 1d] (Ac-DE[Dip]E[Cha]-{ξAbu(4,4-F2)ψ(COCO)})	0.4 nM
CC(=O)N[C@@H](CC(=O)O)C(=O)N[C@@H](CCC(=O)O)C(=O)N[C@H](C(=O)N[C@@H](CCC(=O)O)C(=O)N[C@@H](CC1CCCCC1)C(=O)NC(CC(F)F)C(=O)O)C(c1ccccc1)c1ccccc1 (single isomer, unassigned) [Compound 1b (L)]	20 nM
CCC(C)[C@H](NC(=O)[C@@H](NC(=O)[C@H](CCC(=O)O)NC(=O)CCC(=O)O)C(c1ccccc1)c1ccccc1)C(=O)N[C@@H](CC1CCCCC1)C(=O)NC(CC(F)F)C(=O)NS(=O)(=O)c1ccccc1 (stereo partly shown) [Compound 1o] (Suc-E[Dip][Ile(3ξ)][Cha]-X6)	800 nM

Same assay, conditions: Table 1 hexapeptides, cells printed in μM; read-out: IC50

SMILES	IC50
CC(=O)N[C@@H](CC(=O)O)C(=O)N[C@@H](CCC(=O)O)C(=O)N[C@H](C(=O)N[C@@H](CCC(=O)O)C(=O)N[C@@H](CC1CCCCC1)C(=O)NC(CC(F)F)C(=O)c1nccs1)C(c1ccccc1)c1ccccc1 (stereo partly shown) [Compound 1k] (Ac-DE[Dip]E[Cha]-X7)	1000 nM
CC(=O)N[C@@H](CC(=O)O)C(=O)N[C@@H](CCC(=O)O)C(=O)N[C@H](C(=O)N[C@@H](CCC(=O)O)C(=O)N[C@@H](CC1CCCCC1)C(=O)NC(CC(F)F)C(=O)c1ccco1)C(c1ccccc1)c1ccccc1 (stereo partly shown) [Compound 1m] (Ac-DE[Dip]E[Cha]-X2)	7000 nM
CC(=O)N[C@@H](CC(=O)O)C(=O)N[C@@H](CCC(=O)O)C(=O)N[C@H](C(=O)N[C@@H](CCC(=O)O)C(=O)N[C@@H](CC1CCCCC1)C(=O)NC(CC(F)F)C(=O)c1ncc[nH]1)C(c1ccccc1)c1ccccc1 (stereo partly shown) [Compound 1l] (Ac-DE[Dip]E[Cha]-X1)	6000 nM
CC(=O)N[C@@H](CC(=O)O)C(=O)N[C@@H](CCC(=O)O)C(=O)N[C@H](C(=O)N[C@@H](CCC(=O)O)C(=O)N[C@@H](CC1CCCCC1)C(=O)NC(CC(F)F)C(=O)O)C(c1ccccc1)c1ccccc1 (single isomer, unassigned) [Compound 1b (D)]	1000 nM

Same assay, conditions: Table 2 tetrapeptides and tripeptides; read-out: IC50

SMILES	IC50
CCC(C)[C@H](NC(=O)OCc1ccc(C(=O)O)cc1)C(=O)N[C@@H](CC(C)C)C(=O)NC(CC(F)F)C(=O)C(=O)O (stereo partly shown) [Compound 4d]	440 nM
CC(=O)N[C@H]1Cc2cccc(c2)Oc2ccc(cc2)C[C@@H](C(=O)NC(CC(F)F)C(=O)C(=O)O)NC(=O)[C@H](CCC(=O)O)NC1=O (stereo partly shown) [Compound 2c]	47000 nM
CCC[C@H](NC(=O)OC(C)(C)C)C(=O)N[C@@H](CC(C)C)C(=O)NC(CC(F)F)C(=O)C(=O)O (stereo partly shown) [Compound 5h]	1500 nM
CC(C)C[C@H](NC(=O)[C@H](Cc1ccc(Cl)c(Cl)c1)NC(=O)OC(C)(C)C)C(=O)NC(CC(F)F)C(=O)C(=O)O (stereo partly shown) [Compound 5r]	5800 nM
CC(C)C[C@H](NC(=O)[C@H](Cc1cccc(Br)c1)NC(=O)OC(C)(C)C)C(=O)NC(CC(F)F)C(=O)C(=O)O (stereo partly shown) [Compound 5t]	2500 nM
CCCC[C@H](NC(=O)OC(C)(C)C)C(=O)N[C@@H](CC(C)C)C(=O)NC(CC(F)F)C(=O)C(=O)O (stereo partly shown) [Compound 5g]	1200 nM
CCC(C)[C@H](NC(=O)OCc1ccc(C(=O)OC)cc1)C(=O)N[C@@H](CC(C)C)C(=O)NC(CC(F)F)C(=O)C(=O)O (stereo partly shown) [Compound 4c]	1700 nM
CC(C)C[C@H](NC(=O)[C@H](C)NC(=O)OC(C)(C)C)C(=O)NC(CC(F)F)C(=O)C(=O)O (stereo partly shown) [Compound 5f]	8900 nM
CC(C)C[C@H](NC(=O)[C@H](CCC(N)=O)NC(=O)OC(C)(C)C)C(=O)NC(CC(F)F)C(=O)C(=O)O (stereo partly shown) [Compound 5k]	2100 nM
CC(C)C[C@H](NC(=O)[C@H](CCC(=O)OCc1ccccc1)NC(=O)OC(C)(C)C)C(=O)NC(CC(F)F)C(=O)C(=O)O (stereo partly shown) [Compound 5i]	5800 nM
CC(C)CC[C@H](NC(=O)OC(C)(C)C)C(=O)N[C@@H](CC(C)C)C(=O)NC(CC(F)F)C(=O)C(=O)O (stereo partly shown) [Compound 5q]	1600 nM
CC(C)C[C@H](NC(=O)[C@@H](NC(=O)OCc1ccccc1)C(C)C)C(=O)NC(C=O)CC(F)F (stereo partly shown) [Compound 6b]	50000 nM
CCC(C)[C@H](NC(=O)OCC1c2ccccc2-c2ccccc21)C(=O)N[C@@H](CC(C)C)C(=O)NC(CC(F)F)C(=O)C(=O)O (stereo partly shown) [Compound 4e]	7800 nM
CC(=O)N[C@H](C(=O)N[C@@H](CCC(=O)O)C(=O)N[C@@H](CC1CCCCC1)C(=O)NC(CC(F)F)C(=O)C(=O)NCc1ccccc1)C(c1ccccc1)c1ccccc1 (stereo partly shown) [Compound 2b]	11400 nM
CC(C)COC(=O)N[C@@H](CCC(=O)O)C(=O)N[C@@H](CC(C)C)C(=O)NC(C=O)CC(F)F (stereo partly shown) [Compound 6a]	26000 nM
CCC(C)[C@H](NC(=O)OCc1ccccc1)C(=O)N[C@@H](CC(C)C)C(=O)NC(CC(F)F)C(=O)C(=O)O (stereo partly shown) [Compound 3c]	1400 nM
CC(C)C[C@H](NC(=O)OC(C)(C)C)C(=O)N[C@@H](CC(C)C)C(=O)NC(CC(F)F)C(=O)C(=O)O (stereo partly shown) [Compound 5b]	1200 nM
CCC(C)[C@H](NC(=O)OCc1ccccc1)C(=O)N[C@@H](CCC(=O)O)C(=O)NC(CC(F)F)C(=O)C(=O)O (stereo partly shown) [Compound 3d]	9300 nM

Same assay, conditions: Table 3 capped dipeptide keto acids; read-out: IC50

SMILES	IC50
CC(C)C[C@H](NC(=O)[C@H](O)C1CCCCC1)C(=O)NC(CC(F)F)C(=O)C(=O)O (mixture of isomers) [Compound 8l]	14000 nM
CC(C)C[C@H](NC(=O)C(Oc1cccc(C(=O)O)c1)c1ccccc1)C(=O)NC(CC(F)F)C(=O)C(=O)O (single isomer, unassigned) [Compound 8h]	6000 nM
CC(C)C[C@H](NC(=O)[C@H](O)c1ccc(C(F)(F)F)cc1)C(=O)NC(CC(F)F)C(=O)C(=O)O (mixture of isomers) [Compound 8o]	56000 nM
COc1ccc([C@@H](O)C(=O)N[C@@H](CC(C)C)C(=O)NC(CC(F)F)C(=O)C(=O)O)cc1 (mixture of isomers) [Compound 8p]	25000 nM
CC(C)C[C@H](NC(=O)[C@H](O)c1ccc(Cl)cc1)C(=O)NC(CC(F)F)C(=O)C(=O)O (mixture of isomers) [Compound 8q]	25000 nM
CC(C)C[C@H](NC(=O)CC(C)(C)CC(=O)O)C(=O)NC(CC(F)F)C(=O)C(=O)O (mixture of isomers) [Compound 7e]	4000 nM
CC(C)C[C@H](NC(=O)[C@H](O)c1cccs1)C(=O)NC(CC(F)F)C(=O)C(=O)O (single isomer, unassigned) [Compound 8s]	18000 nM
CC(C)C[C@H](NC(=O)[C@H](O)c1ccccc1)C(=O)NC(CC(F)F)C(=O)C(=O)O (mixture of isomers) [Compound 8n]	6000 nM
CC(C)C[C@H](NC(=O)CC1(CC(=O)O)CCCCC1)C(=O)NC(CC(F)F)C(=O)C(=O)O (mixture of isomers) [Compound 7q]	2000 nM
CC(C)C[C@H](NC(=O)Cc1cccc(CC(=O)O)c1)C(=O)NC(CC(F)F)C(=O)C(=O)O (mixture of isomers) [Compound 8c]	7000 nM

Same assay, conditions: Table 4 indoline keto acids and related; read-out: IC50

SMILES	IC50
CCC(CC)CC1(C(=O)N[C@@H](CC(C)C)C(=O)NC(CC(F)F)C(=O)C(=O)O)Cc2ccccc2N1 (single isomer, unassigned) [Compound 9g]	15000 nM
CC(C)C[C@H](NC(=O)C1Cc2ccc(OC3CCCC3)cc2N1)C(=O)NC(CC(F)F)C(=O)C(=O)O (single isomer, unassigned) [Compound 10e]	18000 nM
CC(C)C[C@H](NC(=O)c1[nH]c2ccccc2c1OC(C(=O)O)c1cccc(Cl)c1)C(=O)NC(CC(F)F)C(=O)C(=O)O (single isomer, unassigned) [Compound 14]	10000 nM
CC(C)C[C@H](NC(=O)C1(CC(=O)O)Cc2ccccc2N1)C(=O)NC(CC(F)F)C(=O)C(=O)O (mixture of isomers) [Compound 9n]	81000 nM
CC(C)CC1c2ccccc2NC1C(=O)N[C@@H](CC(C)C)C(=O)NC(CC(F)F)C(=O)C(=O)O (single isomer, unassigned) [Compound 12]	26000 nM
CC(C)C[C@H](NC(=O)C1(CC2CCC2)Cc2ccccc2N1)C(=O)NC(CC(F)F)C(=O)C(=O)O (mixture of isomers) [Compound 9j]	34000 nM
CC(C)C[C@H](NC(=O)C1(Cc2ccccc2)Cc2ccccc2N1)C(=O)NC(CC(F)F)C(=O)C(=O)O (mixture of isomers) [Compound 9o]	45000 nM
CC(C)C[C@H](NC(=O)C1(C(C)C)Cc2ccccc2N1)C(=O)NC(CC(F)F)C(=O)C(=O)O (mixture of isomers) [Compound 9c]	92000 nM
CC(C)C[C@H](NC(=O)C1(CC2CCCCC2)Cc2ccccc2N1)C(=O)NC(CC(F)F)C(=O)C(=O)O (mixture of isomers) [Compound 9l]	31000 nM
CC(C)=CCC1(C(=O)NC(CC(C)C)C(=O)NC(CC(F)F)C(=O)C(=O)O)Cc2ccccc2N1 (mixture of isomers) [Compound 9e]	69000 nM
